The test system of one test is 661W cells. Description: Mitochondrial viability of 661W cells exposed to tBHP (JC-1 assay). The format is cell-based, mouse. The note with it: 100 nmol/L. On the procedure: The potential of D-Arg-2′,6′-Dmt-Lys-Phe-NH2 (D-Arg-2′,6′-Dmt-Lys-Phe-NH2) to protect against loss of mitochondrial viability induced by tBHP, 100 nmol/L D-Arg-2′,6′-Dmt-Lys-Phe-NH2 was administered to the cultures of 661w cells.

Test [1] deals with primary human retinal pigment epithelial (RPE) cells. Description: Apoptosis of RPE cells induced by tBHP. As to conditions: 1 μM for 4 h + 250 μM tBHP for 24 h. It is filed as cell-based. As for the experimental part: FIG. 34A: control group; (Q2+Q4)%=1.27±0.3%; FIG. 34B: 250 μM tBHP for 24 h group; (Q2+Q4)%=15.7±0.6%; FIG. 34C: 1 μM D-Arg-2′,6′-Dmt-Lys-Phe-NH2 for 4 h+250 μM tBHP for 24 h group; (Q2+Q4)%=8.4±0.8%. FIG. 34D is a chart comparing the fluorescence ratio for the different groups. *P<0.05 C vs. B. FIG. 35 is a chart showing the MDA level induced by tBHP in 3 groups of RPE cells. (*P<0.05).

The subject of test [2] is mouse model of retina degeneration. Description: Mouse model of retina degeneration (ONL thickness, PNA cone staining). It is filed as in vivo. As to conditions: compared to untreated mice. The source says:
CNV is induced in the eye with laser burns. (see Example 6). Mouse models of retinal degeneration have been investigated for many years in the hope of understanding the causes of photoreceptor cell death. Naturally occurring mouse mutants that manifest degeneration of photoreceptors in the retina with preservation of all other retinal cell types have been found: retinal degeneration (formerly rd, identical with rodless retina, r, now Pde6b rd1); Purkinje cell degeneration (pcd); nervous (nr); retinal degeneration slow (rds, now Prph Rd2); retinal degeneration 3 (rd3); motor neuron degeneration (mnd); retinal degeneration 4 (Rd4); retinal degeneration 5 (rd5); vitiligo (vir, now Mitf mi-vit); retinal degeneration 6 (rd6); retinal degeneration 7 (rd7); neuronal ceroid lipofuscinosis (nclf); retinal degeneration 8 (rd8); retinal degeneration 9 (Rd9); retinal degeneration 10 (rd10); and cone photoreceptor function loss (cpfl1).
FIG. 28 is a series of micrographs showing the thickness of the retinal outer nuclear layer (ONL) in a mouse model of retina degeneration in control and D-Arg-2′,6′-Dmt-Lys-Phe-NH2-treated mice.

Test [3] relates to iHTM cells. The test can be described thus: ROS production, sustained oxidative injury by H2O2, iHTM cells. The note with it: then 200 μM H2O2 24 h. It is filed as cell-based, human. On the procedure:
(§1) The effects of D-Arg-2′,6′-Dmt-Lys-Phe-NH2 on sustained oxidative injury of GTM and HTM cells was examined. Cells were pre-treated with 10^−6, 10^−7, 10^−8M of D-Arg-2′,6′-Dmt-Lys-Phe-NH2 for 1 h, and then incubated with 200 μM H2O2 for 24 h to investigate the protective effect of D-Arg-2′,6′-Dmt-Lys-Phe-NH2 in sustained oxidative stress.

In a further test the test system is caspase-3 in HRECs. The test can be described thus: Caspase-3 protein expression in high glucose-treated HRECs (Western blot). The format is cell-based, human. As to conditions: 30 mM glucose co-treatment; 24 h and 48 h; p<0.05. As for the experimental part:
The level of cleaved caspase-3 protein expression was measured by Western blot (FIG. 5A). When HRECs were exposed to 30 mM glucose for 24 h and 48 h, the level of caspase-3 expression increased dramatically.
A general note: Immunoblotting shows a protein as a band on a membrane.

Test [4] concerns iHTM cells. The test can be described thus: MMP decline, sustained oxidative injury by H2O2, iHTM cells. It is filed as cell-based, human. As to conditions: then 200 μM H2O2 24 h. On the procedure: as §1
Another test relates to GTM cells. Description: Intracellular ROS production, acute H2O2 injury, FACS, GTM cells. It is filed as cell-based, human. The note with it: n=3. The source says: The percentage of intracellular ROS production compared to GTM control in GTM H2O2, D-Arg-2′,6′-Dmt-Lys-Phe-NH2 10^−6M, D-Arg-2′,6′-Dmt-Lys-Phe-NH2 10^−7M, D-Arg-2′,6′-Dmt-Lys-Phe-NH2 10^−8M groups were 146.0±2.27%, 84.5±8.75%, 102.0±5.69%, 133.0±5.17% respectively (n=3); the HTM groups were 153.0±3.46%, 79±2.39%, 91.8±3.49%, 129.0±8.24% respectively (n=4). P<0.001 GTM and HTM H2O2 Group compared to control; *** means P<0.001 compared to GTM H2O2 group; ▴ ▴ ▴ Means P<0.001 compared to HTM H2O2 group; ▴ ▴ means P<0.01 compared to HTM H2O2 group.

Test [5] relates to primary human retinal pigment epithelial (RPE) cells. Description: MMP of RPE cells exposed to tBHP (JC-1, FACS). The format is cell-based. As for the experimental part:
Next, the viability of primary RPE cells was tested in the presence of tBHP and various concentrations of D-Arg-2′,6′-Dmt-Lys-Phe-NH2. Cells were plated at 10,000 cells per well in a 96-well plate and cultured for 24 h, then starved for 24 h. After that, cells were exposed to increasing concentrations of tBHP (FIG. 23A), or preincubated for 4 h with different concentrations of D-Arg-2′,6′-Dmt-Lys-Phe-NH2, then stimulated with tBHP for 6 h (FIG. 23B). […] Intracellular ROS production in three groups of RPE cells was also examined using FACS analysis. […] Three different concentration of D-Arg-2′,6′-Dmt-Lys-Phe-NH2 groups were analyzed. The ratio of red to green in 500 μM tBHP for the 3 h group is 1.08, the ratio of red to green in 10 nM D-Arg-2′,6′-Dmt-Lys-Phe-NH2 for 4 h+500 tBHP for 3 h group is 1.25; the ratio of red to green in 100 nM D-Arg-2′,6′-Dmt-Lys-Phe-NH2 for 4 hr+500 μM tBHP for 3 h group is 1.4; and the ratio of red to green in 1 μM D-Arg-2′,6′-Dmt-Lys-Phe-NH2 for 4 h+500 μM tBHP for 3 h group is […]. […] FIG. 33A: Control group, R/G is 3.63±0.24; FIG. 33B: 500 μM tBHP for 3 h group, R/G is 1.08±0.11; FIG. 33C: 1 μM D-Arg-2′,6′-Dmt-Lys-Phe-NH2 for 4 h+500 μM tBHP for 3 h group, R/G is 2.38±0.18. FIG. 33D is a chart comparing the fluorescence ratio for the different groups. *P<0.01, C vs. B.

As to D-Arg-2′,6′-Dmt-Lys-Phe-NH2, the “mitochondrial viability (JC-1 assay)” value in the test on 661W cells is “significantly enhanced”. In addition, the “(Q2+Q4)% cell apoptosis” value in test [1] is recorded as 8.4±0.8%. The “cone cell density (PNA-stained retinal flat mounts)” value in test [2] was “greater”. The “rows of cells in the retinal outer nuclear layer (ONL)” value in test [2] is “retained a greater number of rows of cells”. The “ROS Production” value with iHTM cells [3] (0.01 μM pre-treatment 1 h) is on record as 114.30 ± 3.89 %; in the test on iHTM cells [3] (0.1 μM pre-treatment 1 h) it was 82.89 ± 3.70 %; in the test on iHTM cells [3] (1 μM pre-treatment 1 h) it was 36.91 ± 1.47 %. Besides, the caspase-3 protein level entry in the test with caspase-3 in HRECs is listed as “marked decrease”. The “MMP Decline” value is reported as −58.24 ± 2.62 % in the test on iHTM cells [4] (0.01 μM pre-treatment 1 h), −53.24 ± 2.52 % in the test on iHTM cells [4] (0.1 μM pre-treatment 1 h) and −44.99 ± 2.19 % with iHTM cells [4] (1 μM pre-treatment 1 h). The “percentage of intracellular ROS production compared to GTM control” value came to 84.5±8.75% with GTM cells (10^−6M), 102.0±5.69% in the test on GTM cells (10^−7M) and 133.0±5.17% with GTM cells (10^−8M). The “ratio of red to green (JC-1)” value is given as 1.25 in test [5] (10 nM for 4 h + 500 tBHP for 3 h (FIG. 32)), 1.4 in test [5] (100 nM for 4 hr + 500 μM tBHP for 3 h (FIG. 32)) and 2.28 in test [5] (1 μM for 4 h + 500 μM tBHP for 3 h (FIG. 32)). The “R/G (JC-1)” value in test [5] (1 μM for 4 h + 500 μM tBHP for 3 h (FIG. 33C)) is reported as 2.38±0.18.

The record behind these values is patent US20180296630A1, “METHODS AND COMPOSITIONS FOR PREVENTING OR TREATING OPHTHALMIC CONDITIONS” (Stealth BioTherapeutics Corp, priority 2012, published 2018).
